# Test results reported in patent US11358952B2, “Substituted 4-aminoisoindoline-1,3-dione compounds, compositions thereof, and methods of treatment therewith” (Celgene Corporation, priority 2018, dated 2022).
# Test system: SU-DHL-4 cell line
# Experiment: SU-DHL-4 cell proliferation assay (Cell Titer-Glo viability)
# Type: cell-based
# Details: Homo sapiens; cell viability IC50 activity level, DLBCL cell line SU-DHL-4, 120 hours post-treatment; read-out: SU-DHL-4 Act
# Method in brief: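 Viability read by ATP luminescence (Cell Titer-Glo) at the start and after 120 h of growth at 37°C in 5% CO2. DLBCL cells were seeded at 500 per well with compound across 0.5 nM–10 μM in 20 points, 0.1% DMSO. A four-parameter sigmoidal fit gave IC50 as 50% of DMSO control.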
row,SMILES,IC50 [nM]
1,"O=C1CCC(N2C(=O)c3cccc(NCc4ccc(CN5CCC6(CCCO6)CC5)c(F)c4)c3C2=O)C(=O)N1 (centres unmarked) [Cpd 147, 4-(4-(1-oxa-8-azaspiro[4.5]decan-8-ylmethyl)-3-fluorobenzylamino)-2-(2,6-dioxopiperidin-3-yl)isoindoline-1,3-dione]",200 to 500
2,"NC(=O)c1cc(N2CCN(Cc3ccc(CNc4cccc5c4C(=O)N(C4CCC(=O)NC4=O)C5=O)cc3)CC2)ccn1 (centres unmarked) [Cpd 189, 4-(4-(4-((2-(2,6-dioxopiperidin-3-yl)-1,3-dioxoisoindolin-4-ylamino)methyl)benzyl)piperazin-1-yl)picolinamide]",200 to 500
3,"NC(=O)c1ccc(N2CCN(Cc3ccc(CNc4cccc5c4C(=O)N(C4CCC(=O)NC4=O)C5=O)cc3)CC2)cc1 (centres unmarked) [Cpd 57, 4-(4-(4-((2-(2,6-dioxopiperidin-3-yl)-1,3-dioxoisoindolin-4-ylamino)methyl)benzyl)piperazin-1-yl)benzamide]",< 200
4,"N#Cc1ccc(C2CN(Cc3ccc(CNc4cccc5c4C(=O)N(C4CCC(=O)NC4=O)C5=O)c(F)c3)C2)cc1 (centres unmarked) [Cpd 104, 4-(1-(4-((2-(2,6-dioxopiperidin-3-yl)-1,3-dioxoisoindolin-4-ylamino)methyl)-3-fluorobenzyl)azetidin-3-yl)benzonitrile]",< 200
5,O=C1CCC(N2C(=O)c3cccc(NCc4ccc(CN5CCC(OC6CCC6)CC5)cc4)c3C2=O)C(=O)N1 (centres unmarked) [Cpd 126],200 to 500
6,"Cc1cc(CNc2cccc3c2C(=O)N(C2CCC(=O)NC2=O)C3=O)ccc1CN1CCN(c2ccc(C#N)cn2)CC1 (centres unmarked) [Cpd 63, 6-(4-(4-((2-(2,6-dioxopiperidin-3-yl)-1,3-dioxoisoindolin-4-ylamino)methyl)-2-methylbenzyl)piperazin-1-yl)nicotinonitrile]",< 200
7,"NC(=O)c1ccc(N2CCN(Cc3ccc(CNc4cccc5c4C(=O)N(C4CCC(=O)NC4=O)C5=O)cc3F)CC2)cn1 (centres unmarked) [Cpd 98, 5-(4-(4-((2-(2,6-dioxopiperidin-3-yl)-1,3-dioxoisoindolin-4-ylamino)methyl)-2-fluorobenzyl)piperazin-1-yl)picolinamide]",< 200
8,"O=C1CCC(N2C(=O)c3cccc(NCc4ccc(CN5CCC6(CCC6)C5)cc4)c3C2=O)C(=O)N1 (centres unmarked) [Cpd 73, 4-(4-(6-azaspiro[3.4]octan-6-ylmethyl)benzylamino)-2-(2,6-dioxopiperidin-3-yl)isoindoline-1,3-dione]",751 to 1000
9,"O=C1CC[C@H](N2C(=O)c3cccc(NCc4ccc(CN5CC(N6CCOCC6)C5)cc4F)c3C2=O)C(=O)N1 [Cpd 208, (S)-2-(2,6-dioxopiperidin-3-yl)-4-(2-fluoro-4-((3-morpholinoazetidin-1-yl)methyl)benzylamino)isoindoline-1,3-dione]",< 200
10,"CC(C)(C)OC1CCN(Cc2ccc(CNc3cccc4c3C(=O)N(C3CCC(=O)NC3=O)C4=O)cc2F)CC1 (centres unmarked) [Cpd 146, 4-(4-((4-tert-butoxypiperidin-1-yl)methyl)-3-fluorobenzylamino)-2-(2,6-dioxopiperidin-3-yl)isoindoline-1,3-dione]",< 200
11,"CCC1(OC)CCN(Cc2ccc(CNc3cccc4c3C(=O)N(C3CCC(=O)NC3=O)C4=O)cc2)CC1 (centres unmarked) [Cpd 128, 2-(2,6-dioxopiperidin-3-yl)-4-(4-((4-ethyl-4-methoxypiperidin-1-yl)methyl)benzylamino)isoindoline-1,3-dione]",200 to 500
12,"Cc1cc(CNc2cccc3c2C(=O)N(C2CCC(=O)NC2=O)C3=O)ccc1CN1CCOCC1 (centres unmarked) [Cpd 155, 2-(2,6-dioxopiperidin-3-yl)-4-(3-methyl-4-(morpholinomethyl)benzylamino) isoindoline-1,3-dione]",751 to 1000
13,"Cc1cc(CN2CCC(C(C)(C)C)CC2)ccc1CNc1cccc2c1C(=O)N(C1CCC(=O)NC1=O)C2=O (centres unmarked) [Cpd 96, 4-(4-((4-tert-butylpiperidin-1-yl)methyl)-2-methylbenzylamino)-2-(2,6-dioxopiperidin-3-yl)isoindoline-1,3-dione]",< 200
14,"CC(C)S(=O)(=O)N1CCN(Cc2ccc(CNc3cccc4c3C(=O)N(C3CCC(=O)NC3=O)C4=O)c(F)c2)CC1 (centres unmarked) [Cpd 175, 2-(2,6-dioxopiperidin-3-yl)-4-(2-fluoro-4-((4-(isopropylsulfonyl)piperazin-1-yl)methyl)benzylamino)isoindoline-1,3-dione]",< 200
15,"N#Cc1ccc(N2CCN(Cc3ccc(CNc4cccc5c4C(=O)N(C4CCC(=O)NC4=O)C5=O)cc3)CC2)c(Cl)c1 (centres unmarked) [Cpd 9, 3-chloro-4-(4-(4-((2-(2,6-dioxopiperidin-3-yl)-1,3-dioxoisoindolin-4-ylamino)methyl)benzyl)piperazin-1-yl)benzonitrile]",< 200
16,"Cc1cc(CNc2cccc3c2C(=O)N(C2CCC(=O)NC2=O)C3=O)ccc1CN1CC(c2cccnc2)C1 (centres unmarked) [Cpd 80, 2-(2,6-dioxopiperidin-3-yl)-4-(3-methyl-4-((3-(pyridin-3-yl)azetidin-1-yl)methyl)benzylamino)isoindoline-1,3-dione]",< 200

row,SMILES,IC50 [nM]
1,"O=C1CCC(N2C(=O)c3cccc(NCc4ccc(CN5CCC6(CCOCC6)CC5)cc4F)c3C2=O)C(=O)N1 (centres unmarked) [Cpd 234, 4-(4-(3-oxa-9-azaspiro[5.5]undecan-9-ylmethyl)-2-fluorobenzylamino)-2-(2,6-dioxopiperidin-3-yl)isoindoline-1,3-dione]",< 200
2,"Cc1cc(CNc2cccc3c2C(=O)N(C2CCC(=O)NC2=O)C3=O)ccc1CN1CC(c2ccccn2)C1 (centres unmarked) [Cpd 81, 2-(2,6-dioxopiperidin-3-yl)-4-(3-methyl-4-((3-(pyridin-2-yl)azetidin-1-yl)methyl)benzylamino)isoindoline-1,3-dione]",200 to 500
3,"CCS(=O)(=O)N1CCN(Cc2ccc(CNc3cccc4c3C(=O)N(C3CCC(=O)NC3=O)C4=O)c(F)c2)CC1 (centres unmarked) [Cpd 160, 2-(2,6-dioxopiperidin-3-yl)-4-(4-((4-(ethylsulfonyl)piperazin-1-yl)methyl)-2-fluorobenzylamino)isoindoline-1,3-dione]",< 200
4,"Cc1cc(CNc2cccc3c2C(=O)N(C2CCC(=O)NC2=O)C3=O)ccc1CN1CCN(c2ccc(C(N)=O)nc2)CC1 (centres unmarked) [Cpd 49, 5-(4-(4-((2-(2,6-dioxopiperidin-3-yl)-1,3-dioxoisoindolin-4-ylamino)methyl)-2-methylbenzyl)piperazin-1-yl)picolinamide]",< 200
5,"Cc1nnc(C2CCN(Cc3ccc(CNc4cccc5c4C(=O)N(C4CCC(=O)NC4=O)C5=O)c(F)c3)CC2)o1 (centres unmarked) [Cpd 178, 2-(2,6-dioxopiperidin-3-yl)-4-(2-fluoro-4-((4-(5-methyl-1,3,4-oxadiazol-2-yl)piperidin-1-yl)methyl)benzylamino)isoindoline-1,3-dione]",200 to 500
6,"Cc1cc(CNc2cccc3c2C(=O)N(C2CCC(=O)NC2=O)C3=O)ccc1CN1CC(c2cccc(C#N)c2)C1 (centres unmarked) [Cpd 52, 3-(1-(4-((2-(2,6-dioxopiperidin-3-yl)-1,3-dioxoisoindolin-4-ylamino)methyl)-2-mtehylbenzyl)azetidin-3-yl)benzonitrile]",< 200
7,"Cc1cc(CNc2cccc3c2C(=O)N(C2CCC(=O)NC2=O)C3=O)ccc1CN1CCN(CC2CC2)CC1 (centres unmarked) [Cpd 65, 4-(4-((4-(cyclopropylmethyl)piperazin-1-yl)methyl)-3-methylbenzylamino)-2-(2,6-dioxopiperidin-3-yl)isoindoline-1,3-dione]",200 to 500
8,"O=C1CCC(N2C(=O)c3cccc(NCc4ccc(CN5CC(N6CC7CCC(C6)O7)C5)cc4F)c3C2=O)C(=O)N1 (centres unmarked) [Cpd 225, 4-(4-((3-(8-oxa-3-azabicyclo[3.2.1]octan-3-yl)azetidin-1-yl)methyl)-2-fluorobenzylamino)-2-(2,6-dioxopiperidin-3-yl)isoindoline-1,3-dione]",< 200
9,"O=C1CCC(N2C(=O)c3cccc(NCc4ccc(CN5CCC6(COC6)C5)cc4F)c3C2=O)C(=O)N1 (centres unmarked) [Cpd 227, 4-(4-(2-oxa-6-azaspiro[3.4]octan-6-ylmethyl)-2-fluorobenylamino)-2-(2,6-dioxopiperidin-3-yl)isoindoline-1,3-dione]",< 200
10,"O=C1CCC(N2C(=O)c3cccc(NCc4ccc(CN5CC6(CCCO6)C5)cc4F)c3C2=O)C(=O)N1 (centres unmarked) [Cpd 230, 4-(4-(5-oxa-2-azaspiro[3.4]octan-2-ylmethyl)-2-fluorobenzylamino)-2-(2,6-dioxopiperidin-3-yl)isoindoline-1,3-dione]",< 200
11,"Cc1cc(CNc2cccc3c2C(=O)N(C2CCC(=O)NC2=O)C3=O)ccc1CN1CCN(c2ccc(C(N)=O)cn2)CC1 (centres unmarked) [Cpd 205, 6-(4-(4-((2-(2,6-dioxopiperidin-3-yl)-1,3-dioxoisoindolin-4-ylamino)methyl)-2-methylbenzyl)piperazin-1-yl)nicotinamide]",< 200
12,CCS(=O)(=O)C1CCN(Cc2ccc(CNc3cccc4c3C(=O)N(C3CCC(=O)NC3=O)C4=O)c(F)c2)CC1 (centres unmarked) [Cpd 173],< 200
13,"O=C1CCC(N2C(=O)c3cccc(NCc4ccc(CN5CCC(N6CCCC6=O)CC5)cc4F)c3C2=O)C(=O)N1 (centres unmarked) [Cpd 170, 2-(2,6-dioxopiperidin-3-yl)-4-(2-fluoro-4-((4-(2-oxopyrrolidin-1-yl)piperidin-1-yl)methyl)benzylamino)isoindoline-1,3-dione]",< 200
14,"N#Cc1ccc(N2CCN(Cc3ccc(CNc4cccc5c4C(=O)N(C4CCC(=O)NC4=O)C5=O)cc3)CC2)c(F)c1 (centres unmarked) [Cpd 28, 4-(4-(4-((2-(2,6-dioxopiperidin-3-yl)-1,3-dioxoisoindolin-4-ylamino)methyl)benzyl)piperazin-1-yl)-3-fluorobenzonitrile]",< 200
15,"CN(C)C(=O)c1ccc(N2CCN(Cc3ccc(CNc4cccc5c4C(=O)N(C4CCC(=O)NC4=O)C5=O)cc3F)CC2)cn1 (centres unmarked) [Cpd 142, 5-(4-(4-((2-(2,6-dioxopiperidin-3-yl)-1,3-dioxoisoindolin-4-ylamino)methyl)-2-fluorobenzyl)piperazin-1-yl)-N,N-dimethylpicolinamide]",501 to 750
16,"O=C1CCC(N2C(=O)c3cccc(NCc4ccc(CN5CCC(c6ccccn6)CC5)cc4)c3C2=O)C(=O)N1 (centres unmarked) [Cpd 31, 2-(2,6-dioxopiperidin-3-yl)-4-(4-((4-(pyridin-2-yl)piperidin-1-yl)methyl)benzylamino)isoindoline-1,3-dione]",200 to 500
